Among the data in ChEMBL document CHEMBL1140504, “Mimetics of the tri- and tetrasaccharide epitope of GQ1balpha as myelin-associated glycoprotein (MAG) ligands” (Bioorg Med Chem, 2007) are Ratio IC50 and Activity values, retold here.

This experiment has as its target T1, Myelin-associated glycoprotein (Homo sapiens) (UniProt P20916).
T1 sequence (whole entry): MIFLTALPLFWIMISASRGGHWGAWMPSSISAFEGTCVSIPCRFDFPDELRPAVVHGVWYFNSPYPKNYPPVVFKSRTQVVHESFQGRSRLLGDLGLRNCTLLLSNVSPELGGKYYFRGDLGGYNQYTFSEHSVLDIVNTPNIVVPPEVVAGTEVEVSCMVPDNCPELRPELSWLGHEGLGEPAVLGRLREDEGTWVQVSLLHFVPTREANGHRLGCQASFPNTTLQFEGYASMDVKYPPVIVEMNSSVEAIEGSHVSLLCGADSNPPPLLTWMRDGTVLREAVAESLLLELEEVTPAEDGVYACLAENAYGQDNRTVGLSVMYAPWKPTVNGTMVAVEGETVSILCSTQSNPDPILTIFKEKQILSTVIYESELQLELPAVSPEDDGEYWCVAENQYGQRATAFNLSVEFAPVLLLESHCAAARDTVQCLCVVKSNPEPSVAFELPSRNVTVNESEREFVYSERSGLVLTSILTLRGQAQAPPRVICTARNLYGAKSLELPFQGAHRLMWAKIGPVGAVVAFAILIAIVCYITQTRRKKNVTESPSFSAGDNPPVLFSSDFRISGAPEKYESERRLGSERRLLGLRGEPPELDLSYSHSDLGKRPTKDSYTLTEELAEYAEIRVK
The experiment is described as follows: Ratio of IC50 for drug to sodium (2S,4S,5R,6R)-5-acetami do-2-((2R,3R,4S,5S,6R)-2-((2R, 3R,4S,6S)-3-acetamido-6-(hydro xymethyl)-2-(2-(trimethylsilyl )ethoxy)-tetrahydro-2H-pyran-4 -yloxy)-3,5-dihydroxy-6-(hydro xymethyl)-tetrahydro-2H-pyran- 4-yloxy)-4-hydroxy-6-((1S,2R)- 1,2,3-trihydroxypropyl)-tetrah ydro-2H-pyran-2-carboxylate for human recombinant MAG N-terminal domain expressed in CHO cells. The class given is cell-based.

Calls of active or inactive are those of the source. No cut-off for these calls is given here.

As to `CO[C@]1(C(=O)O)C[C@H](O)[C@@H](NC(C)=O)[C@H]([C@@H](O)[C@H](O)CO)O1`, the Ratio IC50 came to 0.07.

For the compound `CC(=O)N[C@H]1[C@H]([C@@H](O)[C@H](O)CO)O[C@@](Oc2ccc(Oc3ccccc3)cc2)(C(=O)O)C[C@@H]1O`, the Ratio IC50 turned out to be 0.89.

On to `CC(=O)N[C@H]1[C@H](OCC[Si](C)(C)C)O[C@H](CO[C@]2(C(=O)O)C[C@H](O)[C@@H](NC(C)=O)[C@H]([C@H](O)[C@H](O)CO)O2)C[C@@H]1O[C@@H]1O[C@H](CO)[C@H](O)[C@H](O[C@]2(C(=O)O)C[C@H](O)[C@@H](NC(C)=O)[C@H]([C@@H](O)[C@H](O)CO)O2)[C@H]1O`, for which the Ratio IC50 turned out to be 4.

Take `CC(=O)N[C@H]1[C@H]([C@@H](O)[C@H](O)CO)O[C@](Oc2ccc(Oc3ccccc3)cc2)(C(=O)O)C[C@@H]1O`: the outcome was inactive.

`CC(=O)N[C@H]1[C@H]([C@@H](O)[C@H](O)CO)O[C@@](Oc2cccc(-c3cn(-c4ccc(C(=O)O)cc4)nn3)c2)(C(=O)O)C[C@@H]1O`: the Ratio IC50 amounted to 0.9.

For the compound `CC(=O)N[C@H]1[C@H]([C@@H](O)[C@H](O)CO)O[C@@](OCc2ccccc2)(C(=O)O)C[C@@H]1O`, the Ratio IC50 is 0.62.

As to `CC(=O)N[C@H]1[C@H]([C@@H](O)[C@H](O)CO)O[C@@](OCc2ccc(-c3ccccc3)cc2)(C(=O)O)C[C@@H]1O`, the Ratio IC50 is 0.38.

Turning to `CC(=O)N[C@H]1[C@H]([C@@H](O)[C@H](O)CO)O[C@](OCc2cccc(Oc3ccccc3)c2)(C(=O)O)C[C@@H]1O`, the result was inactive.

For the compound `CC(=O)N[C@H]1[C@H]([C@@H](O)[C@H](O)CO)O[C@@](Oc2cccc(-c3ccc(CC(=O)O)cc3)c2)(C(=O)O)C[C@@H]1O`, the Ratio IC50 was 1.

`CC(=O)N[C@H]1[C@H]([C@@H](O)[C@H](O)CO)O[C@@](Oc2cccc(-c3cn(CC(=O)O)nn3)c2)(C(=O)O)C[C@@H]1O`: the Ratio IC50 amounted to 1.1.
